Measurements published in the supplement of paper PMC10307832.

What was measured:
Experiment in all cases: relative viability (nuclei count vs DMSO), 5 days (fraction); higher = more cells survive
[1] = compound: C1=CC2=NC=CN=C2C=C1/C=C/3\C(=O)NC(=O)S3 + Nc1nc2[nH]cc(CCc3ccc(C(=O)N[C@@H](CCC(=O)O)C(=O)O)cc3)c2c(=O)[nH]1 [Pemetrexed] (partner 0.2 µM)
How it was run: (§1)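 Lung cancer cell lines, seeded in 1536-well plates, were treated the following day by pin tool with a single drug or with five library-drug doses (not always all listed) in √10 steps on top of a fixed anchor-drug dose. Cells were fixed and nuclei stained in one step after 5 days, and nuclei were counted. Relative viability is the nuclei count for treated wells divided by that for vehicle wells, reported as medians of duplicate plates.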

[2] = compound: CCN1CCN(c2ccc(Nc3cc(N(C)C(=O)Nc4c(Cl)c(OC)cc(OC)c4Cl)ncn3)cc2)CC1 [BGJ398] + COc1cccc2cc(-c3nc([C@H]4CC[C@H](C(=O)O)CC4)n4ncnc(N)c34)[nH]c12 [OSI-027] (partner 0.5 µM)
How it was run: as §1

[3] = compound: CCN1CCN(c2ccc(Nc3cc(N(C)C(=O)Nc4c(Cl)c(OC)cc(OC)c4Cl)ncn3)cc2)CC1 [BGJ398] + Nc1ncn([C@H]2C[C@H](O)[C@@H](CO)O2)c(=O)n1 [Decitabine] (partner 2 µM)
How it was run: as §1

[4] = compound: CCN1CCN(c2ccc(Nc3cc(N(C)C(=O)Nc4c(Cl)c(OC)cc(OC)c4Cl)ncn3)cc2)CC1 [BGJ398] + O=C(c1cc(Cc2n[nH]c(=O)c3ccccc23)ccc1F)N1CCN(C(=O)C2CC2)CC1 [Olaparib] (partner 8 µM)
How it was run: as §1

Cell Line | relative viability ([1]; first compound 0.02 µM) | relative viability ([1]; first compound 0.06325 µM) | relative viability ([1]; first compound 0.2 µM) | relative viability ([1]; first compound 0.6325 µM) | relative viability ([1]; first compound 2 µM) | relative viability ([2]; first compound 0.01 µM) | relative viability ([2]; first compound 0.03162 µM) | relative viability ([2]; first compound 0.1 µM) | relative viability ([2]; first compound 0.3162 µM) | relative viability ([2]; first compound 1 µM) | relative viability ([3]; first compound 0.01 µM) | relative viability ([3]; first compound 0.03162 µM) | relative viability ([3]; first compound 0.1 µM) | relative viability ([3]; first compound 0.3162 µM) | relative viability ([3]; first compound 1 µM) | relative viability ([4]; first compound 0.01 µM) | relative viability ([4]; first compound 0.03162 µM) | relative viability ([4]; first compound 0.1 µM) | relative viability ([4]; first compound 0.3162 µM) | relative viability ([4]; first compound 1 µM)
HCC-44 | 0.578 | 0.688 | 0.667 | 0.675 | 0.655 | 0.6 | 0.591 | 0.598 | 0.51 | 0.473 | 0.886 | 0.914 | 0.959 | 0.976 | 0.8 | 0.963 | 0.952 | 1.02 | 0.931 | 0.953
HCC-827 | 0.246 | 0.265 | 0.266 | 0.268 | 0.274 | 0.633 | – | 0.754 | 0.547 | 0.847 | 0.286 | – | 0.332 | 0.185 | 0.27 | 0.468 | – | 0.583 | 0.482 | 0.628
NCI-H1623 | – | – | – | – | – | 0.45 | 0.384 | 0.414 | 0.386 | 0.452 | – | – | – | – | – | – | – | – | – | –
NCI-H2347 | 0.417 | 0.447 | 0.427 | 0.444 | 0.408 | 0.228 | 0.557 | 0.447 | 0.413 | 0.434 | 0.608 | 0.621 | 0.612 | 0.621 | 0.563 | 0.539 | 0.546 | 0.553 | 0.631 | 0.63
PC-14 | 0.138 | 0.148 | 0.156 | 0.131 | 0.145 | 0.781 | 0.16 | 1.07 | 0.464 | 1.07 | 0.179 | 0.148 | 0.252 | 0.193 | 0.135 | 0.322 | 0.346 | 0.254 | 0.289 | 0.27
NCI-H1651 | 0.53 | 0.474 | 0.582 | 0.589 | 0.518 | 0.562 | 0.661 | 0.728 | 0.635 | 0.709 | 0.463 | 0.604 | 0.664 | 0.602 | 0.458 | 0.183 | 0.169 | 0.188 | 0.165 | 0.162
HARA | 0.226 | 0.233 | 0.256 | 0.231 | 0.249 | 0.422 | 0.32 | 0.506 | 0.358 | 0.439 | 0.587 | 0.412 | 0.389 | 0.371 | 0.38 | 0.983 | 0.651 | 0.875 | 0.902 | 0.722
NCI-H1650 | 0.376 | 0.381 | 0.319 | 0.357 | 0.394 | 0.487 | – | 0.56 | 0.273 | 0.396 | 0.451 | 0.424 | 0.411 | 0.415 | 0.361 | 0.81 | 0.838 | 0.786 | 0.826 | 0.811
NCI-H1395 | 0.965 | 0.779 | 0.975 | 0.867 | 0.732 | 0.621 | 0.649 | 0.551 | 0.448 | 0.497 | 0.684 | 0.692 | 0.609 | 0.648 | 0.649 | 0.441 | 0.426 | 0.434 | 0.428 | 0.409
LU99A | 0.167 | 0.131 | 0.165 | 0.176 | 0.166 | 0.268 | 0.284 | 0.281 | 0.308 | 0.332 | 0.776 | 0.763 | 0.735 | 0.756 | 0.68 | 0.266 | 0.26 | 0.281 | 0.276 | 0.292
NCI-H1355 | 0.944 | 1.07 | 1.1 | 1 | 0.939 | 0.356 | 0.408 | 0.428 | 0.413 | 0.315 | 0.378 | 0.309 | 0.348 | 0.352 | 0.348 | 0.714 | 0.769 | 0.736 | 0.729 | 0.7
HCC-78 | 0.925 | 0.864 | 0.932 | 0.838 | 0.927 | 0.369 | 0.348 | 0.346 | 0.349 | 0.366 | 0.616 | 0.701 | 0.682 | 0.777 | 0.695 | 0.785 | 0.838 | 0.967 | 0.78 | 0.823
NCI-H1563 | 0.753 | 0.684 | 0.916 | 0.781 | 0.749 | 0.703 | 0.788 | 0.785 | 0.672 | 0.665 | – | – | – | – | – | – | – | – | – | –
HCC-15 | 0.231 | 0.217 | 0.234 | 0.231 | 0.218 | 0.689 | 0.72 | 0.693 | 0.675 | 0.554 | 0.571 | 0.6 | 0.78 | 0.73 | 0.618 | 0.699 | 0.749 | 0.712 | 0.732 | 0.725
EKVX | 0.337 | 0.356 | 0.363 | 0.438 | 0.364 | 0.628 | 0.679 | 0.72 | 0.703 | 0.69 | 0.315 | 0.294 | 0.388 | 0.349 | 0.316 | 0.872 | 0.884 | 0.812 | 0.74 | 0.696
NCI-H2087 | 0.612 | 0.734 | 0.632 | 0.623 | 0.615 | 0.359 | 0.639 | 0.587 | 0.63 | 0.546 | 0.178 | 0.288 | 0.263 | 0.325 | 0.234 | 0.46 | 0.744 | 0.574 | 0.609 | 0.613
LK-2 | 0.198 | 0.326 | 0.276 | 0.267 | 0.148 | 0.18 | 0.181 | 0.155 | 0.121 | 0.176 | 0.234 | 0.262 | 0.222 | 0.157 | 0.137 | 0.624 | 0.532 | 0.374 | 0.186 | 0.227
